Data on 2 compounds can be found in patent publication US7045495B2 (Sloan-Kettering Institute for Cancer Research, priority 1996, dated 2006).

Each structure is given as a SMILES string. Values joined by “and” are separate entries in the source; they are usually repeats but may differ in a detail not shown here. Identical values can stand only once. Like-named read-outs stand apart in the source and are kept apart here.

On the set-up of series [1]: species or system patients. Particulars: in vivo. As to the method:
Individual patients could receive up to six cycles of treatment with the same dose of safingol and doxorubicin (DOX) every 21 days, until signs of tumor progression or unacceptable toxicity occurs, or until the patient's cumulative life-time dose of doxorubicin exceeds 400 mg/m^2 with an additional cycle of treatment. Prior DOX therapy was allowed up to a dose of 280 mg/m^2 as long as the left ventricular ejection fraction was>50%. The starting dose of safingol was 15 mg/m^2.
In fact the white blood count nadirs have increased with increasing safingol dose. Dose escalation above 120 mg/m^2 is planned.
This was associated with no changes in reticulocyte count, no evidence of hemolysis on the peripheral smear, no “pink” discoloration to the plasma, and no evidence or urine hemosiderin. This was believed to be related to relatively poor venous access which only became apparent on the first day of therapy. The patient was retreated according to applicants, protocol criteria for grade I hemolysis which included infusion of safingol through a central vein and at one half the concentration (twice the total volume but the same total dose). Under these conditions the patient has experienced no further evidence of hemolysis.

Series [2] in a line: phase I trial safingol with doxorubicin: plasma pharmacokinetics. The class given is in vivo, patients. As to conditions: human, intravenous. The protocol: (iii) Safingol pharmacokinetics appear linear with increasing dose: The pharmacokinetics of patients treated with safingol and DOX at 45 mg/m^2 is shown below: […]
The test system of the next series is PKC. As to conditions: cited from earlier work.
The target of another series is creatinine phosphokinase. As to conditions: read-out: concentration for 50% inhibition of creatinine phosphokinase; safingol; cited from earlier work.
The target of the next series is case in kinase. As to conditions: read-out: concentration for 50% inhibition of case in kinase; safingol; cited from earlier work.
For series [3] the following is noted: rat, in vivo; cited from earlier work.
A further series concerns SK-GT-2 cells. Put plainly: apoptosis by QFM, Hoechst-33258 staining. The class given is cell-based, human. As to conditions: 24 hours. The protocol: (i) Safingol enhances MMC-induced apoptosis: SK-GT-5 cells, which have a mutated p53 gene (9), were treated with safingol in the presence or absence of MMC for 24 hours. For determination of apoptosis SK-GT-5 cells were treated according to one of several conditions: (i) no drug (control) for 24 hours, (ii) Safingol alone (50 μM) for 24 hours. (This concentration represents the highest non-toxic dose of safingol for the SK-GT-5 cells, as determined by cell proliferation studies, and slightly exceeds the safingol concentration (30 μM) which inhibits PKC enzyme activity by 50% in vitro.), (iii) Mitomycin-C alone (2.5 μg/ml) for 24 hours, (iv) Mitomycin-C alone (5 μg/ml) for 24 hours, (v) the combination of safingol (50 μM) and Mitomycin-C (2.5 μg/ml) for 24 hours, (vi) the combination of safingol (50 μM) and Mitomycin-C (5 μg/ml) for 24 hours. Apoptosis was measured by quantitative fluorescent microscopy (QFM) of nuclear changes induced by apoptosis, as determined by bisbenzimide trihydrochloride (Hoescht-33258) staining of condensed nuclear chromatin (3,5). For the QFM duplicate samples of 500 cells each were counted and scored for the incidence of apoptotic chromatin condensation using an Olympus BH-2 fluorescence microscope.
(ii) UCN-01 enhances MMC-induced apoptosis: SK-GT-2 cells, which have a mutation in p53, were treated with increasing concentrations of UCN-01 in the presence or absence of a fixed dose of MMC for 24 hours.
Both UCN-01 and Flavo inhibit PKC. These drugs are cytotoxic to tumor cells and have been reported to induce apoptosis. […] In order to test this hypothesis we elected to treat gastric cancer cells, MKN-74 and SK-GT-2, as well as breast cancer cells, MDA-MB-468, with UCN-01 (7.5 to 10 μM) or Flavo (300 nM) in the presence or absence of MMC (5 μg/ml) or Taxol (50 μM) for 24 hours. Induction of apoptosis was estimated by counting the frequency of condensed nuclear chromatin with Hoechst-33258 stain in duplicate samples of 400 cells.

The test system of series [4] is MKN-74. Put plainly: clonogenic assay, resistance relative to MKN-74. The class given is cell-based, human. Particulars: MKN-74 (reference); 10 μg/ml CDDP, 5 μg/ml MMC, 50 FM 5-FU. An excerpt:
(§1) The basis of drug resistance in these disease has not been well defined. […] For gastric cancer applicants have been successful in establishing five long-term cell lines, SK-GT-1, SK-GT-2, SK-GT-4, SK-GT-5, and SK-GT-6 for Sloan Kettering Gastric Tumor (12,13) none of which express P-glycoprotein (14). Yet, all these tumors are resistant to chemotherapy and to the induction of apoptosis. Applicants have reported that the relative sensitivity of these gastric cancer cells to chemotherapy is influenced by their p53 status (14).

The test system of the next series is NU-GC-4. Put plainly: clonogenic assay, resistance relative to MKN-74. The class given is cell-based, human. Particulars: 10 μg/ml CDDP, 5 μg/ml MMC.
From the text: as §1

A further series concerns SK-GT-1. Put plainly: clonogenic assay, resistance relative to MKN-74. The class given is cell-based, human. Particulars: clonogenic survival ratio, 10 μg/ml CDDP, 5 μg/ml MMC, 50 FM 5-FU.
From the text: as §1

The next series concerns SK-GT-2. Put plainly: clonogenic assay, resistance relative to MKN-74. The class given is cell-based, human. As to conditions: 10 μg/ml CDDP, 5 μg/ml MMC, 50 FM 5-FU.
From the text: as §1

The next series has as its system SK-GT-5. The series can be described thus: clonogenic assay, resistance relative to MKN-74. Type of series: cell-based, human. Particulars: 10 μg/ml CDDP, 5 μg/ml MMC, 50 FM 5-FU.
From the text: as §1

Series [5] concerns MKN-74. Put plainly: cell viability, trypan blue dye exclusion. Type of series: cell-based, human. Particulars: 24 hours, single drug or concomitant; bryostatin 1 μM, Mitomycin-C 1 μg/ml, Taxol 50 μM, Cisplatin 50 μM. The source says:
Recently our laboratory has studied the effects of combining bryostatin with chemotherapy both in vitro and in vivo against solid tumors. For our in vitro studies, we have been using the human gastric cancer cell line MKN-74. Cytotoxicity has been examined both by cell viability assays using trypan blue dye exclusion assays and by the induction of apoptosis using quantitative fluorescent microscopy.

Regarding `CCCCCCCCCCCCCCC[C@H](O)[C@@H](N)CO` [safingol, L-threo-dihydrosphingosine], in series [1], the “dose limiting hematologic toxicity” value is “no-dose limiting hematologic toxicity”. Further, the hemolysis entry in series [1] is recorded as “only one patient has experienced a grade I hemolysis”. Besides, the Cmax (commonly the highest concentration seen after dosing) in [2] (15 mg/m2, dose level 15 mg/m^2) is 199 ng/mL; in [2] (30 mg/m2, dose level 30 mg/m^2) it was 336 ng/mL; in [2] (60 mg/m2, dose level 60 mg/m^2), 422 ng/mL; in series [2] (120 mg/m2, dose level 120 mg/m^2), 988 ng/mL. Moreover, the area under the curve (AUC) (commonly concentration integrated over time) amounted to 168 ng·h/mL in [2] (15 mg/m2, dose level 15 mg/m^2, read-out: AUC without DOX (first column)); 161 ng·h/mL in [2] (15 mg/m2, dose level 15 mg/m^2, read-out: AUC without DOX (second column)); 501 ng·h/mL in [2] (30 mg/m2, dose level 30 mg/m^2, read-out: AUC without DOX (first column)); 428 ng·h/mL in [2] (30 mg/m2, dose level 30 mg/m^2, read-out: AUC without DOX (second column)); 531 ng·h/mL in [2] (60 mg/m2, dose level 60 mg/m^2, read-out: AUC without DOX (first column)); 501 ng·h/mL in series [2] (60 mg/m2, dose level 60 mg/m^2, read-out: AUC without DOX (second column)). Further, the exposure (AUC) in series [2] (120 mg/m2, dose level 120 mg/m^2, read-out: AUC without DOX (first column)) amounted to 1230 ng·h/mL; in series [2] (120 mg/m2, dose level 120 mg/m^2, read-out: AUC without DOX (second column)), 1230 ng·h/mL. Further, the “concentration range that inhibits PKC activity” value with PKC was “micromolar ranges”. The IC50 with PKC (safingol, in vitro, read-out: concentration which inhibits PKC enzyme activity by 50%) was 33 µM and 30 µM; at creatinine phosphokinase, above 218 µM; at case in kinase it was above 218 µM. The “potentiation of toxicity of chemotherapeutic agents” value in series [3] is listed as “did not potentiate the myelotoxicity of these agents”.
Take `CO[C@@]12[C@H](COC(N)=O)C3=C(C(=O)C(C)=C(N)C3=O)N1C[C@@H]1N[C@@H]12` [MMC, Mitomycin-C]: in the series with SK-GT-2 cells (MMC alone 5.0 μg/ml), the “percentage of cells undergoing apoptosis (QFM)” value is 7%±3%. Moreover, the “induction of apoptosis (condensed chromatin, 400 cells)” value in the series on SK-GT-2 cells (UCN-01 7.5 to 10 μM, MMC 5 μg/ml) is reported as 11% ± 2. Besides, the “Fold-Increase in Resistance Relative to MKN-74 (p53wt)” value in the series on MKN-74 [4] is listed as 1X; in the series with NU-GC-4, 10X; in the series with SK-GT-1, 166X; in the series with SK-GT-2, 106X; with SK-GT-5 it was 55X. Further, the “% of Cells Alive” value in the series with MKN-74 [5] came out at 76%.
